Experimental data reported in patent US20240383856A1 (Zedira GmbH, priority 2021, published 2024).

Legend:
[1] = Caco-2 permeability assay (CacoReady kit); format: in vitro ADME; settings: human, Caco-2, Caco-2 barrier, CacoReady kit; above 1×10^−6 cm/s classified as permeable
Experimental: Permeability coefficients (Papp values) were obtained from Caco-2 barrier studies predicting oral/intestinal bioavailability of the tested compounds. The assays were performed by using CacoReady™ ready-to-use kits from ReadyCell according to the manufacturers protocol.

[2] = logD by shake flask method (octanol / PBS pH 7.4, HPLC); format: physicochemical; settings: octanol / PBS pH 7.4, shake flask
Experimental: In order to classify the inventive compounds according to their lipophilicity, LogD values (distribution coefficient) were determined by means of the well-established shake flask method, measuring the partition of a compound between an octanol and phosphate-buffered saline (PBS, pH 7.4) by HPLC.
The LogD is pH dependent and is a “predictor” for in-vivo properties. LogD combines lipophilicity (intrinsic structural property of the molecule, logP) and ionizability (pKa). Compounds with a moderate lipophilicity (LogD values from 0 to 3) are usually advantaged for oral absorption, being in balance between solubility and permeability. However, sophisticated formulation of a compound might improve oral bioavailability for highly lipophilic compounds.

[3] = target: T1, recombinant human transglutaminase 2 (Homo sapiens, UniProt P21980); experiment: Transglutaminase assay (DCC-assay): incorporation of dansylcadaverine into dimethylcasein; format: biochemical; settings: for IC50: recombinant human TG2 10 nM, dansylcadaverine incorporation into dimethylcasein, read-out: IC50 TG2
T1 construct: purchased Zedira T022
T1 sequence (P21980 1-687): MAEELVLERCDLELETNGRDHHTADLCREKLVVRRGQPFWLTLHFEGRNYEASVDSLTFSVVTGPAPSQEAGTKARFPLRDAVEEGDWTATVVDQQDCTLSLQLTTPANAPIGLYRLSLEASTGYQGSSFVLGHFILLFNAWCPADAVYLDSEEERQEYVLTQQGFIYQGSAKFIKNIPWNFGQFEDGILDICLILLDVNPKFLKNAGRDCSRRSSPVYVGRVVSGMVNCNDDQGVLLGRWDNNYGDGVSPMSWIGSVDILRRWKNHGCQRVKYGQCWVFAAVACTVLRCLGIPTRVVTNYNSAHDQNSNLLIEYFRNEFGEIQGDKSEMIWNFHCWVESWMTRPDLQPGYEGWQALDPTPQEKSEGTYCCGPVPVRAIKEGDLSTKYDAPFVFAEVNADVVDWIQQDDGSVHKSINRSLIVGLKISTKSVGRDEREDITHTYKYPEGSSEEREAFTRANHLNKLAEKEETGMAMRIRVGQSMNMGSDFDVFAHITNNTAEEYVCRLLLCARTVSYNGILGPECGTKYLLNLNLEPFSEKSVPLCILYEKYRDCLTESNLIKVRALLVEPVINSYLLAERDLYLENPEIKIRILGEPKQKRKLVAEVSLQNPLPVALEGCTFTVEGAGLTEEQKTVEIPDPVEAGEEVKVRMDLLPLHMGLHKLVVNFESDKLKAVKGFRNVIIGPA
Experimental: To illustrate the advantage of branched alkyl moieties over aromatic moieties, we refer to reference compounds Ref. 2 (ZED1227, U.S. Pat. No. 9,434,763 B2) and Ref. 3 (A8, ZED1047). Inhibition data were determined using the classical fluorescent transamidation assay (dansylcadaverine incorporation into methylated casein, DCC-assay) as described [Buchold, C.; Hils, M.; Gerlach, U.; Weber, J.; Pelzer, C.; Heil, A.; Aeschlimann, D.; Pasternack, R. Features of ZED1227: The First-In-Class Tissue Transglutaminase Inhibitor Undergoing Clinical Evaluation for the Treatment of Celiac Disease. Cells 2022, 11, 1667. https://doi.org/10.3390/cells11101667]. Casein is one of the best known high molecular weight (24 kDa) protein substrates for transglutaminases. Please note, the IC50 value of Ref. 3 (A8) published in U.S. Pat. No. 9,434,763 B2 cannot be compared to the present data, relying on a fluorogenic isopeptidase assay.
To this extent, inhibition data were determined using the classical fluorescent transamidation assay (dansylcadaverine incorporation into methylated casein, DCC-assay) as described in Büchold et al. [Büchold, C.; Hils, M.; Gerlach, U.; Weber, J.; Pelzer, C.; Heil, A.; Aeschlimann, D.; Pasternack, R. Features of ZED1227: The First-In-Class Tissue Transglutaminase Inhibitor Undergoing Clinical Evaluation for the Treatment of Celiac Disease. Cells 2022, 11, 1667. https://doi.org/10.3390/cells11101667]. Casein is one of the best known high molecular weight (24 kDa) protein substrates for transglutaminases. Inhibition data of the inventive compounds was compared with inhibition of compounds disclosed in U.S. Pat. No. 9,434,763 B2, particularly, compound A8, which is denoted herein as Reference 3. It is noteworthy that the IC50 values of compounds A8 published in U.S. Pat. No. 9,434,763 B2 and E16 from U.S. Pat. No. 11,072,634 B2 cannot be compared to the present data, relying on a fluorogenic isopeptidase assay.
For the determination of potency of inhibitors against tissue transglutaminase, the incorporation of dansylcadaverine into dimethylcasein (Zedira product T036, Lorand et al., Anal Biochem, 1971, 44:221-31) was measured using recombinant human transglutaminase 2 (Zedira Product T022).
The tissue transglutaminase is diluted in buffer (50 mM Tris-HCl, 7.5 mM CaCl2), 150 mM NaCl, pH=7.4). The final concentration of TG2 in the assay is 10 nM.
A 10 mM inhibitor stock solution is prepared in DMSO, and from this a serial 1:2-fold dilution series is prepared also in DMSO. Each of the initial dilutions is subsequently diluted 1:50-fold with buffer (50 mM Tris-HCl, 7.5 mM CaCl2), 150 mM NaCl, pH=7.4) to yield the final working dilutions containing 2% (v/v) DMSO.
15 μl of inhibitor working dilution are added per well of a 96 well microtiter plate. As control, 15 μl of a 2% (v/v) DMSO solution prepared using the buffer mentioned above are added per well.
Immediately before starting the assay, 600 μl transglutaminase working solution are added to 11.4 ml assay buffer (50 mM Tris-HCl, 10 mM CaCl2), 10 mM glutathione, 2.5% glycerol, 16.7 µM dansylcadaverine, 4 uM N,N-dimethylcasein, 200 mM NaCl, pH=8.0). 285 μl of this reaction mix are added per well containing the inhibitor.
Increase in fluorescence is measured using λex=330 nm and λem=500 nm at 37° C. for 30 min. A slope of the increase in fluorescence between 20 and 30 min is calculated for determination of the IC50 value (inhibitor concentration at which 50% of the initial activity is blocked).
Analysis of enzymatic activity is performed by calculation of the slope of an increase in fluorescence intensity. IC50 values are calculated by plotting the enzymatic activity (as percentage from control containing 2% DMSO instead of inhibitor) against the inhibitor concentration. IC50 is defined as the inhibitor concentration blocking 50% of initial enzyme activity.

Compound | Papp [1] [nm/s] | logD [2] | IC50 [3] [µM] | fold more potent compared to Ref. 3 ([3]; DCC-assay, IC50 ratio versus Ref. 3 (A8)) [fold]
Cn1nncc1C(=O)N[C@@H](CCC(=O)C(N)=O)C(=O)Nc1cccn(CC(=O)NC2C3CC4CC(C3)CC2C4)c1=O (stereo partly drawn) [II-127, (S)-N1-(1-(2-(2-adamantylamino)-2-oxoethyl)-2-oxo-1,2-dihydropyridin-3-yl)-2-(1-methyl-1H-1,2,3-triazole-5-carboxamido)-5-oxohexanediamide] | < 10 | < 1 | 0.04 to 0.4 | 
CNC(=O)C(=O)CC[C@H](NC(=O)c1cncnc1C)C(=O)Nc1cccn(CC(=O)NC2C3CC4CC2CC(C(=O)O)(C4)C3)c1=O (stereo partly drawn) [II-173, (S)-N1-(1-(2-(5-carboxy-2-aminoadamantane)-2-oxoethyl)-2-oxo-1,2-dihydropyridin-3-yl)-N6-methyl-2-(4-methylpyrimidine-5-carboxamido)-5-oxohexanediamide] | < 10 | < 1 | 0.04 to 0.4 | 
CNC(=O)C(=O)CC[C@H](NC(=O)c1snnc1C=O)C(=O)Nc1cccn(CC(=O)NC2C3CC4CC(C3)CC2C4)c1=O (stereo partly drawn) [II-205, (S)-2-(4-formyl-1,2,3-thiadiazole-5-carboxamido)-N1-(1-(2-(2-adamantylamino)-2-oxoethyl)-2-oxo-1,2-dihydropyridin-3-yl)-N6-methyl-5-oxohexanediamide] | < 10 | < 1 | 0.04 to 0.4 | 
CNC(=O)C(=O)CC[C@H](NC(=O)c1noc(C)n1)C(=O)Nc1cccn(CC(=O)NC23CC(C2)C3)c1=O [II-197, (S)-N1-(1-(2-(bicyclo[1.1.1]pentan-1-ylamino)-2-oxoethyl)-2-oxo-1,2-dihydropyridin-3-yl)-N6-methyl-2-(5-methyl-1,2,4-oxadiazole-3-carboxamido)-5-oxohexanediamide] | < 10 | < 1 | 0.4 to 2.5 | 
CNC(=O)C(=O)CC[C@H](NC(=O)c1cc2ccccc2o1)C(=O)Nc1cccn(CC(=O)NC2C3CCCC2CC3)c1=O (stereo partly drawn) [II-171, (2S)-2-(benzofuran-2-carboxamido)-N1-(1-(2-(bicyclo[3.2.1]octan-8-ylamino)-2-oxoethyl)-2-oxo-1,2-dihydropyridin-3-yl)-N6-methyl-5-oxohexanediamide] | 10 to 100 | < 1 | < 0.04 | 
CNC(=O)C(=O)CC[C@H](NC(=O)c1c[nH]cn1)C(=O)Nc1cccn(CC(=O)NC[C@@H]2CC[C@@H]3C[C@H]2C3(C)C)c1=O [II-209, (S)-N1-(1-(2-(((1R,2R,5R)-6,6-dimethylbicyclo[3.1.1]heptan-2-yl)methylamino)-2-oxoethyl)-2-oxo-1,2-dihydropyridin-3-yl)-2-(1H-imidazole-4-carboxamido)-N6-methyl-5-oxohexanediamide] | < 10 | 1 to 3 | 0.4 to 2.5 | 
Cc1nc2ncccc2cc1C(=O)N[C@@H](CCC(=O)C(=O)NC1CCCCC1)C(=O)Nc1cccn(CC(=O)NC23CC(C2)C3)c1=O [II-184, (S)-N1-(1-(2-(bicyclo[1.1.1]pentan-1-ylamino)-2-oxoethyl)-2-oxo-1,2-dihydropyridin-3-yl)-N6-cyclohexyl-2-(2-methyl-1,8-naphthyridine-3-carboxamido)-5-oxohexanediamide] | < 10 | 1 to 3 | 0.4 to 2.5 | 
CNC(=O)C(=O)CC[C@H](NC(=O)c1oc2ccccc2c1C)C(=O)Nc1cccn(CC(=O)NC2CC3C=CC2C3)c1=O (stereo partly drawn) [II-97, (S)-N1-(1-(2-(bicyclo[2.2.1]hept-5-en-2-ylamino)-2-oxoethyl)-2-oxo-1,2-dihydropyridin-3-yl)-N6-methyl-2-(3-methylbenzofuran-2-carboxamido)-5-oxohexanediamide] | 10 to 100 | 1 to 3 | 0.04 to 0.4 | 
CNC(=O)C(=O)CC[C@H](NC(=O)c1nc[nH]n1)C(=O)Nc1cccn(CC(=O)NC2C3CC4CC(C3)CC2C4)c1=O (stereo partly drawn) [II-134, (S)-N1-(1-(2-(2-adamantylamino)-2-oxoethyl)-2-oxo-1,2-dihydropyridin-3-yl)-N6-methyl-5-oxo-2-(1H-1,2,4-triazole-3-carboxamido)hexanediamide] | < 10 | < 1 | 0.4 to 2.5 | 
CNC(=O)C(=O)CC[C@H](NC(=O)c1snnc1C)C(=O)Nc1cccn(CC(=O)N[C@H]2C[C@H]3CC[C@]2(C)C3(C)C)c1=O [II-161, (S)-N1-methyl-5-(4-methyl-1,2,3-thiadiazole-5-carboxamido)-2-oxo-N6-(2-oxo-1-(2-oxo-2-((1R,2S,4R)-1,7,7-trimethylbicyclo[2.2.1]heptan-2-ylamino)ethyl)-1,2-dihydropyridin-3-yl)hexanediamide] | < 10 | < 1 | 0.04 to 0.4 | 
NC(=O)C(=O)CC[C@H](NC(=O)c1cc2ccccc2o1)C(=O)Nc1cccn(CC(=O)N[C@@H]2C[C@@H]3CC[C@H]2C3)c1=O [II-148, (S)-2-(benzofuran-2-carboxamido)-N1-(1-(2-((1S,2R,4R)-bicyclo[2.2.1]heptan-2-ylamino)-2-oxoethyl)-2-oxo-1,2-dihydropyridin-3-yl)-5-oxohexanediamide] | 10 to 100 | < 1 | < 0.04 | 
CNC(=O)C(=O)CC[C@H](NC(=O)c1cn[nH]n1)C(=O)Nc1cccn(CC(=O)NC2C3CC4CC(C3)CC2C4)c1=O (stereo partly drawn) [II-132, (S)-N1-(1-(2-(2-adamantylamino)-2-oxoethyl)-2-oxo-1,2-dihydropyridin-3-yl)-N6-methyl-5-oxo-2-(1H-1,2,3-triazole-4-carboxamido)hexanediamide] |  |  | 0.4 to 2.5 | 
CCC(CC)CNC(=O)Cn1cccc(NC(=O)[C@H](CC/C=C/C(=O)OC)NC(=O)c2cncn2C)c1=O [Ref. 2, reference compound] |  |  | 0.04 to 0.4 | 80
